Consider four compounds from patent US20240360194A1, “New Peptides as Potent and Selective GIP Receptor Agonists” (Sanofi, priority 2021, published 2024).

A word on the EC50: it is the concentration needed to bring the measured effect to its halfway point. A low value points to a more potent agent. One may read the IC50 as the concentration at which inhibition is half-maximal. Higher therefore signals a need for much substance. What is called AUC(0-t) is the area under the concentration-time curve up to a stated or last time point. High values mean high exposure, low ones low exposure. As a reminder, the Cmax is the highest concentration seen after dosing. Usually clearance stands for the volume of plasma or blood freed of the substance per unit of time. Low readings indicate a low capacity for elimination, high ones a high capacity for elimination. For orientation: half-life means how long it takes for the measured level to halve. A low value points to fast loss. What is called bioavailability is dose-corrected exposure relative to a reference, in per cent.

Series [1] is described as follows: Solubility assessment (UHPLC-UV of supernatant, target 10 mg/ml). The series is classed as physicochemical. The settings on record: for solubility at 24 h: read-out: Soluble amount. In a few lines:
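Peptides at 10 mg/ml (purity-corrected) in 100 mM phosphate pH 7.4, optionally with 2.7 mg/ml m-cresol; gentle agitation 1 h, then 5° C. overnight (24 h). Supernatant after 15 min centrifugation at 2500 RCF quantified by UHPLC-UV, with sequence-based extinction coefficients.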

Series [2] concerns the target T1, human GLP-1 receptor (hGLP-1R) (Homo sapiens, UniProt P43220). In words: In vitro cellular cAMP assay for GLP-1 receptor efficacy (HEK-293 cell line over-expressing receptor). The settings on record: HEK-293, 0.1% BSA. The series is classed as cell-based.
Target sequence in this assay (P43220 24-463): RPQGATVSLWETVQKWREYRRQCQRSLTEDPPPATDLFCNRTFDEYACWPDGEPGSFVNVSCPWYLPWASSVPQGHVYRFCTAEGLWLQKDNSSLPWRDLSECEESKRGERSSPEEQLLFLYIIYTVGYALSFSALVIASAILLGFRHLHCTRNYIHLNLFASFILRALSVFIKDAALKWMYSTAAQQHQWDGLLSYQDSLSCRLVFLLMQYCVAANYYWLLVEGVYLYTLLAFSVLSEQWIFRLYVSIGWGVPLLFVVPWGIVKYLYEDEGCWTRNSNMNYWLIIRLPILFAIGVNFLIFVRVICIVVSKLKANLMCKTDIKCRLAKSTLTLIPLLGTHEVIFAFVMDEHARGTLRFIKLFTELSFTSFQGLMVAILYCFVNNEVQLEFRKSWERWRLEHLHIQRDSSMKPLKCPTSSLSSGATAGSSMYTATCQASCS
For series [3], the target named is T1, human GLP-1 receptor (hGLP-1R). The series is described as follows: Binding assay, displacement of [125I]GLP-1 from HEK-293 membranes over-expressing GLP-1R (SPA). The settings on record: [125I]GLP-1 displacement. Summed up: (§1)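 Membranes from HEK-293 cells over-expressing human GIPR or GLP-1R, isolated by homogenising, sonicating and ultracentrifuging at 100000×g into HEPES/EDTA/NaCl buffer with protease inhibitors, were used for binding.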
Background: In a radioligand displacement assay an active substance lowers the binding of a labelled ligand.

In series [4] the target is T2, human GIP receptor (hGIPR) (Homo sapiens, UniProt P48546).
T2 sequence (P48546 22-466): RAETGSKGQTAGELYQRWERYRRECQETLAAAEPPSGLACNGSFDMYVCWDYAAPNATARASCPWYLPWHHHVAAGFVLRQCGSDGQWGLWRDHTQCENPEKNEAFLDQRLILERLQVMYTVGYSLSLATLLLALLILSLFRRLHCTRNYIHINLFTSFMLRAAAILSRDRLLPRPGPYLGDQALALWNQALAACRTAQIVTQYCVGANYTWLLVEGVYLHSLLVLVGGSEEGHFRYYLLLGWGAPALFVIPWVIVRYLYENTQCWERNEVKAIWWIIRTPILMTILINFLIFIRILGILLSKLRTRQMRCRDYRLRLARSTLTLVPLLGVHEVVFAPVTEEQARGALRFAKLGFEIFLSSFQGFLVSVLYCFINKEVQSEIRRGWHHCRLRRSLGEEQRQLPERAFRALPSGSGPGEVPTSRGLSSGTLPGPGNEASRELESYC
The series is described as follows: Binding assay, displacement of [125I]GIP from HEK-293 membranes over-expressing GIPR (SPA). The settings on record: [125I]GIP displacement. Summed up: as §1

Series [5] is described as follows: Pharmacokinetic evaluation in rats. In kind it is in vivo. The conditions noted are these: male, SD, rat, in vivo. As to the method: Compounds were administered in a suitable buffer system, e.g. PBS buffer solution at pH7.4 or DPBS solution at concentrations of 0.05, 0.1, 0.5 or 1 mg/ml depending on dose, species and administration volume. Male SD rats were dosed 0.25 mg/kg, 0.5 mg/kg or 1 mg/kg intravenously (i.v.) or subcutaneously (s.c.). Blood samples were collected after 0.08, 0.25, 0.5, 1, 2, 4, 8, 24, 32, and 48 h post i.v. application and 0.25, 0.5, 1, 2, 4, 8, 24, 32, and 48 h post s.c. application, respectively. Plasma samples were analysed after protein precipitation via liquid chromatography mass spectrometry (LC/MS). PK parameters and half-life were calculated using Phoenix-WinNonlin 8.1 using a non-compartmental model and linear trapezoidal interpolation calculation. Pharmacokinetic profiles were determined as described in Methods.

Where [6] appears, read: 100 mM phosphate buffer pH 7.4 (solubility buffer system A), pH 7.4, Solubility buffer system A: 100 mM phosphate buffer pH 7.4.
The mark [7] stands for this setting: pH 7.4, Solubility buffer system C: 100 mM phosphate buffer pH 7.4, 2.7 mg/ml m-cresol.

Values after ≈ are worked out from the molar mass of the structure shown. Like-named read-outs stand apart in the source and are kept apart here. Numbered stars: 1 amine (or outer) side, 2 acyl side, 3 side chain; on linkers, the order of the positions; unused ones are H or OH. Square brackets hold non-standard residues; d marks the D form. Side chains are listed from the residue outwards. Peptide text beside a SMILES is read from it. * marks the point of attachment. C18 diacid = O=C(O)CCCCCCCCCCCCCCCCC(=O)*; γGlu = O=C(O)[C@H](CCC(=O)[*:2])N[*:1]; AEEA = NCCOCCOCC(=O)O; Aib = CC(C)(N)C(=O)O

Regarding `CC[C@H](C)[C@H](NC(=O)[C@H](Cc1ccccc1)NC(=O)[C@H](CCC(=O)O)NC(=O)[C@H](CCC(=O)O)NC(=O)[C@H](CCC(N)=O)NC(=O)[C@H](Cc1c[nH]cn1)NC(=O)[C@@H](NC(=O)[C@H](CCCNC(=N)N)NC(=O)[C@H](CC(=O)O)NC(=O)[C@H](CCCCNC(=O)COCCOCCNC(=O)COCCOCCNC(=O)CC[C@H](NC(=O)CCCCCCCCCCCCCCCCC(=O)O)C(=O)O)NC(=O)C(C)(C)NC(=O)[C@@H](NC(=O)[C@H](CO)NC(=O)[C@H](CC(C)C)NC(=O)[C@H](CC(=O)O)NC(=O)[C@H](CO)NC(=O)[C@@H](NC(=O)[C@H](Cc1ccccc1)NC(=O)[C@@H](NC(=O)CNC(=O)[C@H](CCC(=O)O)NC(=O)C(C)(C)NC(=O)[C@@H](N)Cc1ccc(O)cc1)[C@@H](C)O)[C@@H](C)CC)[C@@H](C)CC)[C@@H](C)CC)C(=O)N[C@@H](CCC(=O)O)C(=O)N[C@@H](Cc1c[nH]c2ccccc12)C(=O)N[C@@H](CC(C)C)C(=O)N[C@@H](CC(C)C)C(=O)N[C@@H](C)C(=O)N[C@@H](CCC(N)=O)C(=O)N[C@@H](CCCNC(=N)N)C(=O)NCC(N)=O` [SEQ ID NO: 4, H2N-Y-Aib-E-G-T-F-I-S-D-L-S-I-Aib-K[{AEEA}2-gGlu-C18OH]-D-R-I-H-Q-E-E-F-I-E-W-L-L-A-Q-R-G-NH2], the values for the solubility at 24 h in series [1] (setting [6]) and in series [1] (setting [7]) were over 30 mg/mL and over 8.7 mg/mL, respectively. The EC50 in series [2] was over 0.001 µM. Further, the IC50 in series [3] stood at 0.308 µM; in series [4], 0.0015 µM.
For `CC[C@H](C)[C@H](NC(=O)[C@H](CCCNC(=N)N)NC(=O)[C@H](CC(=O)O)NC(=O)[C@H](CCCCNC(=O)COCCOCCNC(=O)COCCOCCNC(=O)CC[C@H](NC(=O)CCCCCCCCCCCCCCCCC(=O)O)C(=O)O)NC(=O)C(C)(C)NC(=O)[C@@H](NC(=O)[C@H](CO)NC(=O)[C@H](CC(C)C)NC(=O)[C@H](CC(=O)O)NC(=O)[C@H](CO)NC(=O)[C@@H](NC(=O)[C@H](Cc1ccccc1)NC(=O)[C@@H](NC(=O)CNC(=O)[C@H](CCC(=O)O)NC(=O)C(C)(C)NC(=O)[C@@H](N)Cc1ccc(O)cc1)[C@@H](C)O)[C@@H](C)CC)[C@@H](C)CC)C(=O)N[C@@H](Cc1c[nH]cn1)C(=O)N[C@@H](CCC(N)=O)C(=O)NC(C)(C)C(=O)N[C@@H](CCC(=O)O)C(=O)N[C@@H](Cc1ccccc1)C(=O)N[C@H](C(=O)N[C@@H](CCC(=O)O)C(=O)N[C@@H](Cc1c[nH]c2ccccc12)C(=O)N[C@@H](CC(C)C)C(=O)N[C@@H](CC(C)C)C(=O)N[C@@H](C)C(=O)N[C@@H](CCC(N)=O)C(=O)N[C@@H](CCC(=O)O)C(=O)NCC(N)=O)[C@@H](C)CC` [SEQ ID NO: 12, H2N-Y-Aib-E-G-T-F-I-S-D-L-S-I-Aib-K[{AEEA}2-gGlu-C18OH]-D-R-I-H-Q-Aib-E-F-I-E-W-L-L-A-Q-E-G-NH2], in that order: over 9.5 mg/mL, 7.6 mg/mL (≈ 1760 µM), over 0.01 µM, 0.133 µM and 0.0005 µM.
On to `CC[C@H](C)[C@H](NC(=O)[C@H](Cc1ccccc1)NC(=O)[C@H](CCC(=O)O)NC(=O)[C@H](CCC(=O)O)NC(=O)[C@H](CCC(N)=O)NC(=O)[C@H](Cc1c[nH]cn1)NC(=O)[C@@H](NC(=O)[C@H](CCCNC(=N)N)NC(=O)[C@H](CC(=O)O)NC(=O)[C@H](CCCCNC(=O)COCCOCCNC(=O)COCCOCCNC(=O)CC[C@H](NC(=O)CCCCCCCCCCCCCCCCC(=O)O)C(=O)O)NC(=O)C(C)(C)NC(=O)[C@@H](NC(=O)[C@H](CO)NC(=O)[C@H](CC(C)C)NC(=O)[C@H](CC(=O)O)NC(=O)[C@H](CO)NC(=O)[C@@H](NC(=O)[C@@](C)(CC)NC(=O)[C@@H](NC(=O)CNC(=O)[C@H](CCC(=O)O)NC(=O)C(C)(C)NC(=O)[C@@H](N)Cc1ccc(O)cc1)[C@@H](C)O)[C@@H](C)CC)[C@@H](C)CC)[C@@H](C)CC)C(=O)N[C@@H](CCC(=O)O)C(=O)N[C@@H](Cc1c[nH]c2ccccc12)C(=O)N[C@@H](CC(C)C)C(=O)N[C@@H](CC(C)C)C(=O)N[C@@H](C)C(=O)N[C@@H](CCC(N)=O)C(=O)N[C@@H](CCCNC(=N)N)C(=O)NCC(N)=O` [SEQ ID NO: 15, H2N-Y-Aib-E-G-T-Iva-I-S-D-L-S-I-Aib-K[{AEEA}2-gGlu-C18OH]-D-R-I-H-Q-E-E-F-I-E-W-L-L-A-Q-R-G-NH2], for which the Soluble amount in series [1] (pH 7.4) came out at 8.5 mg/mL. In series [1] (pH 7.4, Soluble amount), the solubility is over 9.5 mg/mL. Also, the concentration giving a half-maximal response (EC50) in series [2] was over 0.01 µM. For the same compound, the IC50 is 0.495 µM in series [3] and 0.0002 µM in series [4].
In series [2], `CC[C@H](C)[C@H](NC(=O)[C@H](CCC(=O)O)NC(=O)[C@H](CCC(=O)O)NC(=O)[C@H](CCCCNC(=O)COCCOCCNC(=O)COCCOCCNC(=O)CC[C@H](NC(=O)CCCCCCCCCCCCCCCCC(=O)O)C(=O)O)NC(=O)C(C)(C)NC(=O)[C@@H](NC(=O)[C@H](CO)NC(=O)[C@H](CC(C)C)NC(=O)[C@H](CC(=O)O)NC(=O)[C@H](CO)NC(=O)[C@@H](NC(=O)[C@H](Cc1ccccc1)NC(=O)[C@@H](NC(=O)CNC(=O)[C@H](CCC(=O)O)NC(=O)C(C)(C)NC(=O)[C@@H](N)Cc1ccc(O)cc1)[C@@H](C)O)[C@@H](C)CC)[C@@H](C)CC)C(=O)N[C@@H](Cc1c[nH]cn1)C(=O)N[C@@H](CCC(N)=O)C(=O)NC(C)(C)C(=O)N[C@@H](CCC(=O)O)C(=O)N[C@@H](Cc1ccccc1)C(=O)N[C@H](C(=O)N[C@@H](CCC(=O)O)C(=O)N[C@@H](Cc1c[nH]c2ccccc12)C(=O)N[C@@H](CC(C)C)C(=O)N[C@@H](CC(C)C)C(=O)N[C@@H](C)C(=O)N[C@@H](CCC(N)=O)C(=O)NCC(=O)N1CCC[C@H]1C(=O)N[C@@H](CO)C(=O)N[C@@H](CO)C(=O)NCC(=O)N[C@@H](C)C(=O)N1CCC[C@H]1C(=O)N1CCC[C@H]1C(=O)N1CCC[C@H]1C(=O)N[C@@H](CO)C(N)=O)[C@@H](C)CC` [SEQ ID NO: 19, H2N-Y-Aib-E-G-T-F-I-S-D-L-S-I-Aib-K[{AEEA}2-gGlu-C18OH]-E-E-I-H-Q-Aib-E-F-I-E-W-L-L-A-Q-G-P-S-S-G-A-P-P-P-S-NH2] (H-Y[Aib]EGTFISDLSI[Aib]K([AEEA-AEEA-γGlu-C18 diacid])EEIHQ[Aib]EFIEWLLAQGPSSGAPPPS-NH2) returned an EC50 of over 0.01 µM. Besides, in series [5] (iv, 0.25 mg/kg), the AUC(0-t) was 194 µg·h/mL, the Cmax worked out at 12.8 µg/mL, the clearance is 1.09 mL/h/kg and the half-life was 19.6 h. In addition, in series [5] (sc, 0.5 mg/kg), the AUC(0-t) is 189 µg·h/mL, the Cmax turned out to be 5.59 µg/mL, the bioavailability was 54% and the half-life is 20.1 h. In series [3], this compound gave an IC50 of 0.183 µM.
